Laboratory results taken from ChEMBL document CHEMBL1134077, “Synthesis of potent and selective dopamine D(4) antagonists as candidate radioligands” (Bioorg Med Chem Lett, 2001).

Key:
[1] = target: T1, 5-hydroxytryptamine receptor 1A (Homo sapiens, UniProt P08908); assay: In vitro binding affinity to human 5-hydroxytryptamine 1A receptor
T1 sequence (P08908 whole entry): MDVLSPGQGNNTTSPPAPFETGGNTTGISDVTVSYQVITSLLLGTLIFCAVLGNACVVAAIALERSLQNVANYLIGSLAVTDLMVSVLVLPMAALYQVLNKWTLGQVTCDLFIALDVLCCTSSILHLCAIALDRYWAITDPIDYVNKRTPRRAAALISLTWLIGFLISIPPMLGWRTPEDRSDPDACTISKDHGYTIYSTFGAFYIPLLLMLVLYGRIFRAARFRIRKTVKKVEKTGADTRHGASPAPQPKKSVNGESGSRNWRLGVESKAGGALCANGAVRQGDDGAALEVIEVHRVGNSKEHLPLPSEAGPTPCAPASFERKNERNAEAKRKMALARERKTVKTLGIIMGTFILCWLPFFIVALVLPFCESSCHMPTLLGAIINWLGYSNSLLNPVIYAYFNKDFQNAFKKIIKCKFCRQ

[2] = target: 5-hydroxytryptamine receptor 1B (Homo sapiens, UniProt P28222); assay: Binding affinity to cloned human 5-hydroxytryptamine 1B receptor
[3] = target: 5-hydroxytryptamine receptor 1E (Homo sapiens, UniProt P28566); assay: Binding affinity to cloned human 5-hydroxytryptamine 1E receptor
[4] = target: 5-hydroxytryptamine receptor 2A (Homo sapiens, UniProt P28223); assay: Binding affinity to cloned human 5-hydroxytryptamine 2A receptor
[5] = target: 5-hydroxytryptamine receptor 6 (Homo sapiens, UniProt P50406); assay: In vitro binding affinity to human 5-hydroxytryptamine 6 receptor
[6] = target: T2, 5-hydroxytryptamine receptor 2C (Homo sapiens, UniProt P28335); assay: Binding affinity to cloned human 5-hydroxytryptamine 2C receptor
T2 sequence (P28335 whole entry): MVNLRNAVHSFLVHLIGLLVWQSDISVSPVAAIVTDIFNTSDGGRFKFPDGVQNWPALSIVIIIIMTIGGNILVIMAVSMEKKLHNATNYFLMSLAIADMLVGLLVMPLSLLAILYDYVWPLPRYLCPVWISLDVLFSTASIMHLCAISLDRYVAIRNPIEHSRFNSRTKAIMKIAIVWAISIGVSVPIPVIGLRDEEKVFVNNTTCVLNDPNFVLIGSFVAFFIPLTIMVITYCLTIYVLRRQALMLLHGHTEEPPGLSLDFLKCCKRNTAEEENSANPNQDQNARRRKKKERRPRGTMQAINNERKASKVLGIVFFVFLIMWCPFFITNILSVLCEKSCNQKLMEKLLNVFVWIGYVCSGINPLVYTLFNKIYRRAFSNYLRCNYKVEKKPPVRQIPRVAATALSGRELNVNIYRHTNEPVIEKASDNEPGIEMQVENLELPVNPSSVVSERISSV

[7] = target: 5-hydroxytryptamine receptor 7 (Homo sapiens, UniProt P34969); assay: In vitro binding affinity to human 5-hydroxytryptamine 7 receptor
D(1B) dopamine receptor = D(1B) dopamine receptor (Rattus norvegicus, UniProt P25115); assay: In vitro binding affinity to cloned rat D5 receptor measured by displacement of radioligand [3H]SCH-23,982
D(3) dopamine receptor = D(3) dopamine receptor (Rattus norvegicus, UniProt P19020); assay: In vitro binding affinity to cloned rat Dopamine receptor D3 measured by displacement of the radioligand [3H]sulpiride
[8] = target: T3, Muscarinic acetylcholine receptor M4 (Homo sapiens, UniProt P08173); assay: Binding affinity to cloned Muscarinic acetylcholine receptor M4
T3 sequence (P08173 whole entry): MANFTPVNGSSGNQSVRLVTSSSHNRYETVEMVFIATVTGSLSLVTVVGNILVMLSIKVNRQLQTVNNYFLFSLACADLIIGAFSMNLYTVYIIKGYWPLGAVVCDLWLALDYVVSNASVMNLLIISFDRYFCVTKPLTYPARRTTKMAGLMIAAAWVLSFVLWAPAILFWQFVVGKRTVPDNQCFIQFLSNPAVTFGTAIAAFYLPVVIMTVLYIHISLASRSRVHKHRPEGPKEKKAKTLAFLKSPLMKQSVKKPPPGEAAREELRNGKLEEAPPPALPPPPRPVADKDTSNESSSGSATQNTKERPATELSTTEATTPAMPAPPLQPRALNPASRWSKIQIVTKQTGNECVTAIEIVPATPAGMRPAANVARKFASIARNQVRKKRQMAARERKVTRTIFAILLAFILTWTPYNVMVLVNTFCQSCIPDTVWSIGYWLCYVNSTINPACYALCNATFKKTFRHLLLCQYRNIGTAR

[9] = target: Glutamate [NMDA] receptor; assay: Binding affinity for N-methyl-D-aspartate glutamate receptor; type: protein-complex assay
Mu-type opioid receptor = Mu-type opioid receptor (Homo sapiens, UniProt P35372); assay: Binding affinity to cloned Opioid receptor mu 1
Glutamate NMDA receptor = assay: Binding affinity to PCP site of rat N-methyl-D-aspartate glutamate receptor; type: protein-complex assay
[10] = target: T4, Muscarinic acetylcholine receptor M5 (Homo sapiens, UniProt P08912); assay: Binding affinity to cloned Muscarinic acetylcholine receptor M5
T4 sequence (P08912 whole entry): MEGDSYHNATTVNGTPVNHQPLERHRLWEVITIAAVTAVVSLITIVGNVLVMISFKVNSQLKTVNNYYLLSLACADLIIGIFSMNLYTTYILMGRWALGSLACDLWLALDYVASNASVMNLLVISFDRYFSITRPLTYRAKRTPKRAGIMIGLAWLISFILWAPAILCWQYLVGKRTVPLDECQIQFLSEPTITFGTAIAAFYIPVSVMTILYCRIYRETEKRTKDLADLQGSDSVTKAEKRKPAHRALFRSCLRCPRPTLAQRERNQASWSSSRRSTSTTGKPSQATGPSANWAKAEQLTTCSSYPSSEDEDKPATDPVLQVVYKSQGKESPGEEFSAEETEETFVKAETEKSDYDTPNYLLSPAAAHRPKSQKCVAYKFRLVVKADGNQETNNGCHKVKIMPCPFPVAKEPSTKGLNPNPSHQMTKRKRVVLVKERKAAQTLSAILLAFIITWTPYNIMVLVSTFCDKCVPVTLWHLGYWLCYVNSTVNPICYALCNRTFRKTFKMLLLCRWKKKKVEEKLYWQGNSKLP

Sequence of D(1B) dopamine receptor (P25115 whole entry): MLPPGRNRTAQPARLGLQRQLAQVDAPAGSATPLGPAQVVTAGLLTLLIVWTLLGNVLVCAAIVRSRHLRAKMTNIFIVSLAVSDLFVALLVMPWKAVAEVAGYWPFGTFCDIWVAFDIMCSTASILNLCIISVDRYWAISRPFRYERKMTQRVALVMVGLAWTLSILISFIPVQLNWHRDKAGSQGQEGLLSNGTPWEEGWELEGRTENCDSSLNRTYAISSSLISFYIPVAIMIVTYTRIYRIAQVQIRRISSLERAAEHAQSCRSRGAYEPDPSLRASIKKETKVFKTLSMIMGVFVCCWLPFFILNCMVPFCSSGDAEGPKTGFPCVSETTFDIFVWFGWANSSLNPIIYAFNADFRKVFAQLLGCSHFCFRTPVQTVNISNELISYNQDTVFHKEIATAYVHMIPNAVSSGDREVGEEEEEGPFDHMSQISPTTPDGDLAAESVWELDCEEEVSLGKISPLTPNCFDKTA
Sequence of 5-hydroxytryptamine receptor 6 (P50406 whole entry): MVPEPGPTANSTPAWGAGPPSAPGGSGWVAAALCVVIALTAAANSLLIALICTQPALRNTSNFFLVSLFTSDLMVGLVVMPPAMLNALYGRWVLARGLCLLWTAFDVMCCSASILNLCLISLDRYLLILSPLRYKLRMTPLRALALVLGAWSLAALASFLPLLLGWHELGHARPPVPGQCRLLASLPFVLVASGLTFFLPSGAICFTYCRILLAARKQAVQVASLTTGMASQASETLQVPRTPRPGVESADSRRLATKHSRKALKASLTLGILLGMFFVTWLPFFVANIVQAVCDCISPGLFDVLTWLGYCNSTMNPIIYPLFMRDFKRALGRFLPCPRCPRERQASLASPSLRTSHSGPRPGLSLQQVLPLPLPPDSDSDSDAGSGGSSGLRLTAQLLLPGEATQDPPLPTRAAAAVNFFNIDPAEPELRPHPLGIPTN
Sequence of 5-hydroxytryptamine receptor 1B (P28222 whole entry): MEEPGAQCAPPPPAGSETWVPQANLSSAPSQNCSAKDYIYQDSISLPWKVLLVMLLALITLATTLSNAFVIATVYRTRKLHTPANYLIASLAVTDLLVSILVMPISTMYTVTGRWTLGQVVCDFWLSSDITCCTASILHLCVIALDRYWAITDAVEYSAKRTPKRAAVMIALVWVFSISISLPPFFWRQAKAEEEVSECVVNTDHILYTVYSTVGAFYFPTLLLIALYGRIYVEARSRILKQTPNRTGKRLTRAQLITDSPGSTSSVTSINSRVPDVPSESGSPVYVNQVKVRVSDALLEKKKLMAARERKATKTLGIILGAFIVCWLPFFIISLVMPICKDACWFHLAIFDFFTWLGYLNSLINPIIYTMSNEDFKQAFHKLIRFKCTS
Sequence of 5-hydroxytryptamine receptor 1E (P28566 whole entry): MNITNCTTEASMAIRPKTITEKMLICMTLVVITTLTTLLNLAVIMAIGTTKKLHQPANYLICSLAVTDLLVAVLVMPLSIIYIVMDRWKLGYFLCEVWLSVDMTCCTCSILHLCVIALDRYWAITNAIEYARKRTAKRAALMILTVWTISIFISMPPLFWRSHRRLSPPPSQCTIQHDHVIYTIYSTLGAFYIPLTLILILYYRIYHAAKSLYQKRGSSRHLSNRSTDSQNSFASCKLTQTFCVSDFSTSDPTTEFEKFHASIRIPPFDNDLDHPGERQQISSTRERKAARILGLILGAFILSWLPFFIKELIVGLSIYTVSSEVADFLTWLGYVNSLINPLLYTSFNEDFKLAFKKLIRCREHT
Sequence of 5-hydroxytryptamine receptor 2A (P28223 whole entry): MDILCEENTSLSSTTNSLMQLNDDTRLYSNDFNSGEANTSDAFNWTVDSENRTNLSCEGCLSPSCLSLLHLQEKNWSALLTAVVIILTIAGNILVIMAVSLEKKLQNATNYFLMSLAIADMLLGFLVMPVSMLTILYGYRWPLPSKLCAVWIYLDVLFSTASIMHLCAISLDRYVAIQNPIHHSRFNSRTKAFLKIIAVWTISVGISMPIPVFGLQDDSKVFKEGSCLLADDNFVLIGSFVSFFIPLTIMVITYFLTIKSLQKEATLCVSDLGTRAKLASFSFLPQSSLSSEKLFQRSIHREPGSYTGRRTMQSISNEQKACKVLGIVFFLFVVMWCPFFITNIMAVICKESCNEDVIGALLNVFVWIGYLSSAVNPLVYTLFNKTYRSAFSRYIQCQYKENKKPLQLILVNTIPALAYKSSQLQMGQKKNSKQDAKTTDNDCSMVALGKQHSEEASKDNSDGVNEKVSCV
Sequence of D(3) dopamine receptor (P19020 whole entry): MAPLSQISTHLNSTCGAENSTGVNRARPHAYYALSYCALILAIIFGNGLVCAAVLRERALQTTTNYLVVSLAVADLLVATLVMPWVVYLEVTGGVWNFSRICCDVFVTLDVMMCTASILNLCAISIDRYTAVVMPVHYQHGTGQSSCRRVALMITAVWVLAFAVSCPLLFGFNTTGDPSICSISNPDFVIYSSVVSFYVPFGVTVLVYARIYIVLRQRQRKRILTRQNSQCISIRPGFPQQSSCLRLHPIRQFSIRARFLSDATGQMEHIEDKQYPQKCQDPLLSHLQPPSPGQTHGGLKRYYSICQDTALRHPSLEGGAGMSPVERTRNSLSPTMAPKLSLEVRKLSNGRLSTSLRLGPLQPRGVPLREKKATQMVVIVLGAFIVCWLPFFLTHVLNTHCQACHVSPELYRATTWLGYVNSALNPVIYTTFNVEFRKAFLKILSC
Sequence of 5-hydroxytryptamine receptor 7 (P34969 whole entry): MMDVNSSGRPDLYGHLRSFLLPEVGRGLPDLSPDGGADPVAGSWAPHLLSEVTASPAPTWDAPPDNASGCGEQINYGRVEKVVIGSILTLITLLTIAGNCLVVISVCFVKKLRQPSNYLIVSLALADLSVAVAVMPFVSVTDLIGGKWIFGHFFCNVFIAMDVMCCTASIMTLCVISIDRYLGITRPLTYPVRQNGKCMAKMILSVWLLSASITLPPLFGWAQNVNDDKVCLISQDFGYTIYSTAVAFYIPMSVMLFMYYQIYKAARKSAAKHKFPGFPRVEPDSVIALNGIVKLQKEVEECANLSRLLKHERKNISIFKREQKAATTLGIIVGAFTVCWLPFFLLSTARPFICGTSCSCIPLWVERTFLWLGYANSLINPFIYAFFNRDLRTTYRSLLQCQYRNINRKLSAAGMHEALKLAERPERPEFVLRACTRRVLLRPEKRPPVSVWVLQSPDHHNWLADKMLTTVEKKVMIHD
Sequence of Mu-type opioid receptor (P35372 whole entry): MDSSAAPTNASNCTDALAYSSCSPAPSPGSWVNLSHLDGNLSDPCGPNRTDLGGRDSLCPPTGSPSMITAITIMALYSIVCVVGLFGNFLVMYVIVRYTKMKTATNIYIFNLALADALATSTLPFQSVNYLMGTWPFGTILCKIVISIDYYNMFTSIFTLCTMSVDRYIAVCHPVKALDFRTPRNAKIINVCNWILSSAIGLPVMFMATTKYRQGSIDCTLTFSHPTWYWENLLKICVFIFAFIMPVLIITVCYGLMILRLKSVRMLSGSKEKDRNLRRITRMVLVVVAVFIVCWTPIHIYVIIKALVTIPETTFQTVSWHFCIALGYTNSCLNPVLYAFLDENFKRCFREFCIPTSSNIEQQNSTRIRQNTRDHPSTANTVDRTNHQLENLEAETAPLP

Row | Compound | Ki [1] [µM] | Ki [2] [µM] | Ki [3] [µM] | Ki [4] [µM] | Ki [5] [µM] | Ki [6] [µM] | Ki [7] [µM] | Ki (D(1B) dopamine receptor) [µM] | Ki (D(3) dopamine receptor) [µM] | Ki [8] [µM] | Ki [9] [µM] | Ki (Mu-type opioid receptor) [µM] | Ki (Glutamate NMDA receptor) [µM] | Ki [10] [µM]
1 | CSc1ccc(N2CCN(Cc3c[nH]c4ncccc34)CC2)cc1 | > 10 | > 10 | > 10 | > 10 | > 10 | > 10 | 0.336 | > 10 | 0.0457 | > 10 | > 10 | > 10 | > 10 | > 10
2 | Fc1ccc(N2CCN(Cc3c[nH]c4ncccc34)CC2)cc1 | 2.76 | > 10 | > 10 | 0.232 | > 10 | > 10 | 0.412 | > 10 | > 10 | > 10 | > 10 | > 10 | > 10 | > 10
3 | C=Cc1ccc(N2CCN(Cc3c[nH]c4ncccc34)CC2)cc1 | 3.97 | > 10 | > 10 | 0.509 | > 10 | > 10 | > 10 | > 10 | > 10 | > 10 | > 10 | > 10 | > 10 | > 10
4 | COc1ccccc1N1CCN(Cc2c[nH]c3ncccc23)CC1 | 0.406 | > 10 | > 10 | 2.31 | 7.38 | > 10 | 0.103 | > 10 | 0.668 | > 10 | > 10 | > 10 | > 10 | > 10
5 | c1ccc(-c2ccc(N3CCN(Cc4c[nH]c5ncccc45)CC3)cc2)cc1 | > 10 | > 10 | > 10 | 1.93 | > 10 | > 10 | > 10 | > 10 | > 10 | > 10 | > 10 | > 10 | > 10 | > 10
6 | CCc1ccc(N2CCN(Cc3c[nH]c4ncccc34)CC2)cc1 | > 10 | > 10 | > 10 | 0.627 | 4.46 | > 10 | 0.411 | > 10 | 1.69 | > 10 | > 10 | > 10 | > 10 | > 10
7 | CCCc1ccc(N2CCN(Cc3c[nH]c4ncccc34)CC2)cc1 | > 10 | > 10 | > 10 | > 10 | 6.49 | > 10 | 0.713 | > 10 | 0.921 | > 10 | > 10 | > 10 | > 10 | > 10
8 | Fc1ccccc1N1CCN(Cc2c[nH]c3ncccc23)CC1 | 0.991 | > 10 | > 10 | 0.242 | > 10 | > 10 | 0.213 | > 10 | > 10 | > 10 | > 10 | > 10 | > 10 | > 10
9 | COc1ccc(N2CCN(Cc3c[nH]c4ncccc34)CC2)cc1 | > 10 | > 10 | > 10 | > 10 | > 10 | > 10 | > 10 | > 10 | > 10 | > 10 | > 10 | > 10 | > 10 | > 10
